Experimental data reported in patent publication US10138214B2, “Substituted triazoles and methods relating thereto” (Neurocrine Biosciences, Inc., priority 2015, dated 2018).

Assays:
[1] = system: hippocampal-kindled focal seizures; assay: Hippocampal-kindled rat test (focal seizures); type: in vivo, rats; settings: i.p. injection
Experimental: Electrodes are implanted into the hippocampus of anesthetized rats, which are then allowed to recover for 1 week. Following the rapid kindling protocol (Lothman et al., Brain Res., 1994. 649:71-84), the rats are stimulated with […] for 10 s, 50 Hz, every 30 min for 6 h on alternate days until they are fully kindled (4-5 stimulus days). After 1 week of rest, the animals are given the same electrical stimulus, which served as a baseline. The animals are pretreated with the test compound (by i.p. injection) and then tested at various intervals. At each time point, the behavioral seizure score and after-discharge duration are recorded. The behavioral seizure scores are scored according to the following criteria (Racine, Electroencephalogr Clin Neurophysiol, 1972. 32(3):281-94): stage 1—mouth and facial clonus; stage 2—stage 1 plus head nodding; stage 3—stage 2 plus forelimb clonus; stage 4—stage 3 plus rearing, and stage 5—stage 4 plus repeated rearing and falling. The after-discharge threshold (ADT) can also be measured in the kindled rat. The ADT is defined as the lowest current at which an after-discharge of at least 4 s is elicited. […] The initial stimulation is conducted at an intensity of 20 μA with 10 μA increments every 1-2 min until an after-discharge was elicited. Fifteen minutes after the predrug threshold determination, a single dose of the test substance is administered to 2 animals in a volume of 0.04 ml/10 g body weight. In this way, the animals serve as their own control. The individual rat ADT is then determined at varying times (i.e., 0.25, 1, 2 and 4 h) after drug administration.

[2] = system: pilocarpine-induced convulsive status epilepticus; assay: Pilocarpine rat model (initial qualitative efficacy screen); type: in vivo, Sprague Dawley rats; settings: i.p., administered after seizure onset, mpk=mg/kg
Experimental: Compounds are assessed for their ability to halt pilocarpine-induced convulsive status epilepticus (SE). To identify doses of drug to be used in the SE testing, acute motor impairment is assessed following the intraperitoneal (i.p.) administration of doses starting at 100 and 300 mg/kg. Individual Sprague Dawley rats are evaluated for acute toxicity over several time points following administration of test compounds. The results obtained from this initial study determine whether any dose adjustments are required. The behavior of the animals is observed closely and recorded over a four hour period. Routinely, a minimum number of four rats, two per dose are employed in this acute screen.
To determine if the test substance can halt acute pilocarpine-induced status an initial qualitative efficacy screen is performed. A challenge dose of pilocarpine (50 mg/kg) is administered i.p. and animals observed until the first convulsive (e.g., Stage 3, 4, or 5) seizure (time zero). The seizure severity is determined using the Racine scale. At this point a minimally toxic dose of the candidate drug is administered to a group of 8 male albino Sprague Dawley rats (150-180 g) via the i.p. route of administration. Efficacy is defined by the ability of an investigational drug to halt the further expression of pilocarpine induced convulsive seizures (e.g., Stage 3, 4, or 5). […] In this test, the investigational drug is administered 30 minutes after the first observed convulsive seizure. This is a more severe test of a candidate's ability to halt the induced status. […] A minimum of 4 doses with at least 8 rats per dose are utilized in the quantification study.

harmaline-induced tremor = assay: Harmaline-induced tremor assay; type: in vivo, ICR mice; settings: mice, harmaline 30 mg/kg s.c.; oral doses noted; p<0.05; mpk=mg/kg
From the text: The harmaline-induced tremor assay is the primary preclinical model of induced tremor. Male ICR mice (10 weeks old) were used in this study. Mice were group housed in OPTI mouse ventilated cages. All animals remained group housed during the duration of the study. All mice were acclimated to the colony room for at least one week prior to testing. During the period of acclimation, mice were examined on a regular basis, handled, and weighed to assure adequate health and suitability. Mice were maintained on a 12/12 light/dark cycle. The room temperature was maintained between 20 and 23° C. with a relative humidity maintained between 30% and 70%. Chow and water were provided ad libitum for the duration of the study. In each test, animals were randomly assigned across treatment groups. Ten mice were tested in each group. […] After habituation, tremor activity of the mice was measured for approximately 8 min. The recorded frequencies (1-64 Hz) of activity and the number of tremor events were captured electronically. Data were analyzed by the tremor monitor software (San Diego Instruments) in a two part process. Using a Fast Fourier Transform (FFT), an output is provided showing the percentage of activity (energy) recorded at each frequency. […] Data were analyzed by analysis of variance (ANOVA) followed by Fisher PLSD post-hoc analysis. […]

Row | SMILES | active at (dose) [1] | Dose at which activity was shown [2] [mpk] | ED50 [1] | Dose showing significant reductions in total tremors (harmaline-induced tremor) [mpk]
1 | N[C@@H](Cc1ccccc1)C(=O)Nc1cn(Cc2c(F)cccc2F)nn1 [Compound 3a, (2S)-2-amino-N-{1-[(2,6-difluorophenyl)methyl]-1H-1,2,3-triazol-4-yl}-3-phenylpropanamide] | active at 200 mpk | 200 |  | 
2 | O=C(Nc1cn(Cc2c(F)cccc2F)nn1)[C@@H]1COCCN1 [Compound 3c, (3S)—N-{1-[(2,6-difluorophenyl)methyl]-1H-1,2,3-triazol-4-yl}morpholine-3-carboxamide] | active at 50 mpk |  |  | 
3 | O=C(Nc1cn(Cc2c(F)cccc2F)nn1)[C@H]1COCCN1 [Compound 3d, (3R)—N-{1-[(2,6-difluorophenyl)methyl]-1H-1,2,3-triazol-4-yl}morpholine-3-carboxamide] |  | 450 | ED50 79 mpk | 
4 | CN(C)c1cn(Cc2c(F)cccc2F)nn1 [Compound 8a, [1-(2,6-difluoro-benzyl)-1H-[1,2,3]triazol-4-yl]-dimethyl-amine] |  | 65 | ED50 25 mpk | 
5 | Fc1cccc(F)c1Cn1cc(N2CCOCC2)nn1 [Compound 10a, 4-{1-[(2,6-difluorophenyl)methyl]-1H-1,2,3-triazol-4-yl}morpholine] |  | 65 | ED50 32 mpk | 
6 | Fc1cccc(F)c1Cn1cc(N2CCCC2)nn1 [Compound 10f, 1-[(2,6-difluorophenyl)methyl]-4-(pyrrolidin-1-yl)-1H-1,2,3-triazole] |  | 65 |  | 
7 | O=C1CCCN1c1cn(Cc2c(F)cccc2F)nn1 [Compound 14a, 1-{1-[(2,6-difluorophenyl)methyl]-1H-1,2,3-triazol-4-yl}pyrrolidin-2-one] |  |  |  | 50
8 | O=C1OCCN1c1cn(Cc2c(F)cccc2F)nn1 [Compound 15a, 3-{1-[(2,6-difluorophenyl)methyl]-1H-1,2,3-triazol-4-yl}-1,3-oxazolidin-2-one] |  |  |  | 50
9 | O=C1NCCN1c1cn(Cc2c(F)cccc2F)nn1 [Compound 16a, 1-{1-[(2,6-difluorophenyl)methyl]-1H-1,2,3-triazol-4-yl}imidazolidin-2-one] | active at 100 mpk |  |  | 
